In the supplement of paper PMC10307832:

What was measured:
Experiment in all cases: relative viability (nuclei count vs DMSO), 5 days (fraction); higher = more cells survive
Tanzisertib + Lapatinib = compound: O[C@H]1CC[C@H](Nc2ncc3nc(Nc4c(F)cc(F)cc4F)n([C@H]4CCOC4)c3n2)CC1 [Tanzisertib] + CS(=O)(=O)CCNCc1ccc(-c2ccc3ncnc(Nc4ccc(OCc5cccc(F)c5)c(Cl)c4)c3c2)o1 [Lapatinib] (partner 2 µM)
Procedure, shortened: (§1)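 Lung cancer cell lines were pin-tool dosed in 1536-well plates on the day after seeding, with either a lone drug or a fixed anchor-drug dose plus five library-drug doses (not always all listed) in √10 steps. Nuclei were counted on 4× images after 5 days. Relative viability is the ratio of treated-well to vehicle-well nuclei counts, with each value a median of duplicate plates.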

[1] = compound: C[C@@H](N)c1ccc(C(=O)Nc2ccnc3[nH]ccc23)cc1 + Cc1nc(NC(=O)N2CCC[C@H]2C(N)=O)sc1-c1ccnc(C(C)(C)C(F)(F)F)c1 [Alpelisib] (partner 2 µM)
Procedure, shortened: as §1

[2] = compound: C1CNCCC1C2=CC(=NN2)C3=CC=NC=C3 + Nc1ncn([C@H]2C[C@H](O)[C@@H](CO)O2)c(=O)n1 [Decitabine] (partner 2 µM)
Procedure, shortened: as §1

[3] = compound: C1CNCCC1C2=CC(=NN2)C3=CC=NC=C3 + N=C(N)NC(=N)NCCc1ccccc1 [Phenformin] (partner 250 µM)
Procedure, shortened: as §1

Row | Cell Line | relative viability (Tanzisertib + Lapatinib; first compound 0.08 µM) | relative viability (Tanzisertib + Lapatinib; first compound 0.253 µM) | relative viability (Tanzisertib + Lapatinib; first compound 0.8 µM) | relative viability (Tanzisertib + Lapatinib; first compound 2.53 µM) | relative viability (Tanzisertib + Lapatinib; first compound 8 µM) | relative viability ([1]; first compound 0.04 µM) | relative viability ([1]; first compound 0.1265 µM) | relative viability ([1]; first compound 0.4 µM) | relative viability ([1]; first compound 1.265 µM) | relative viability ([1]; first compound 4 µM) | relative viability ([2]; first compound 0.08 µM) | relative viability ([2]; first compound 0.8 µM) | relative viability ([2]; first compound 2.53 µM) | relative viability ([2]; first compound 8 µM) | relative viability ([3]; first compound 0.08 µM) | relative viability ([3]; first compound 0.8 µM) | relative viability ([3]; first compound 2.53 µM) | relative viability ([3]; first compound 8 µM)
1 | NCI-H2170 | 0.285 | 0.252 | 0.26 | 0.262 | 0.253 | 0.879 | 0.436 | 0.765 | 0.833 | 0.627 | 0.442 | 0.446 | 0.487 | 0.529 | 0.433 | 0.394 | 0.456 | 0.441
2 | HCC-78 | 0.72 | 0.7 | 0.827 | 0.786 | 0.303 | 0.505 | 0.354 | 0.483 | 0.577 | 0.33 | 0.677 | – | 0.637 | 0.743 | 0.695 | 0.56 | 0.68 | 0.719
3 | NCI-H1395 | 1.02 | 1.1 | 1.08 | 0.985 | 0.914 | 1.07 | 0.976 | 0.996 | – | 0.838 | 0.705 | 0.714 | 0.751 | 0.755 | 0.419 | 0.342 | 0.419 | 0.497
4 | NCI-H2126 | 0.772 | 0.807 | 0.82 | 0.694 | 0.724 | 0.828 | 0.795 | 0.79 | 0.82 | 0.881 | 0.613 | 0.654 | 0.667 | 0.578 | 0.483 | 0.51 | 0.556 | 0.577
5 | H3255 | 0.231 | 0.29 | 0.256 | 0.256 | 0.205 | 0.774 | 0.742 | 0.806 | 0.716 | 0.673 | 0.532 | – | 0.674 | 0.587 | 0.366 | 0.323 | 0.429 | 0.434
6 | HCC-15 | 0.974 | 0.854 | 0.888 | 0.916 | 0.659 | 0.969 | 0.871 | 0.996 | – | 0.917 | 0.652 | 0.793 | 0.587 | 0.621 | 0.401 | 0.54 | 0.494 | 0.469
7 | NCI-H661 | 0.596 | 0.431 | 0.505 | 0.511 | 0.449 | 0.77 | 1.05 | 0.914 | 0.157 | 0.634 | 0.549 | 0.57 | 0.541 | 0.541 | 0.277 | 0.263 | 0.273 | 0.273
8 | NCI-H2009 | 1.12 | 0.983 | 0.847 | 1.05 | 0.296 | 1.11 | 1.13 | 1.1 | 0.996 | 0.786 | 0.374 | 0.4 | 0.343 | 0.37 | 0.481 | 0.528 | 0.51 | 0.489
9 | HCC-44 | 1.07 | 1.16 | 1.12 | 1.1 | 1.25 | 0.886 | 0.736 | 0.91 | 0.847 | 0.588 | 0.957 | 0.989 | 0.961 | 0.942 | 0.31 | 0.194 | 0.276 | 0.322
